The record followed here is ChEMBL document CHEMBL3352393, “Gallic acid, one of the components in many plant tissues, is a potential inhibitor for insulin amyloid fibril formation” (Eur J Med Chem, 2014).

Assay [1] is filed under the species Homo sapiens. The assay can be described thus: Inhibition of insulin fibril formation (unknown origin) assessed as decrease in ThT fluorescence at 1:50 insulin to compound ratio at pH2 up to 12 hrs by ThT binding assay.
The species entered for assay [2] is Homo sapiens. The assay can be described thus: Inhibition of insulin fibril formation (unknown origin) assessed as turbidity at 1:20 insulin to compound ratio at pH2 up to 12 hrs by atomic force microscopy.
The species named for assay [3] is Homo sapiens. Put plainly: Inhibition of insulin fibril formation (unknown origin) assessed as secondary structural changes at 1:5 insulin to compound ratio at pH2 up to 12 hrs by FT-IR technique.
The species named for assay [4] is Homo sapiens. Put plainly: Inhibition of insulin fibril formation (unknown origin) assessed as turbidity at pH2 up to 12 hrs by UV/vis spectrometry.
The species named for assay [5] is Homo sapiens. The assay can be described thus: Inhibition of insulin fibril formation (unknown origin) assessed as secondary structural changes at 1:5 insulin to compound ratio at pH2 up to 12 hrs by Far-UV CD spectra.
The species entered for assay [6] is Homo sapiens. Put plainly: Inhibition of insulin fibril formation (unknown origin) assessed as turbidity at 1:50 insulin to compound ratio at pH2 up to 12 hrs by UV/vis spectrometry. Particulars: concentration not given here.
Assay [7] is filed under the species Homo sapiens. Put plainly: Inhibition of insulin fibril formation (unknown origin) assessed as turbidity at 1:5 insulin to compound ratio at pH2 up to 12 hrs by UV/vis spectrometry. Particulars: concentration not given here.
The species named for assay [8] is Homo sapiens. The assay can be described thus: Inhibition of insulin fibril formation (unknown origin) assessed as decrease in ThT fluorescence at 1:5 insulin to compound ratio at pH2 up to 12 hrs by ThT binding assay.
Assay [9] is filed under the species Homo sapiens. The assay can be described thus: Inhibition of insulin fibril formation (unknown origin) assessed as turbidity at 1:10 insulin to compound ratio at pH2 up to 12 hrs by UV/vis spectrometry.

The source made the active and inactive calls. The rule behind the calls is not given here. Bounds are passed on as bounds.

Regarding `O=C(O)c1cc(O)c(O)c(O)c1`, the inhibition entry in assay [1], in [2], in [3], in assay [5], in [8] and in assay [9] was “Active” each time. The inhibition entry in [4] is “Dose-dependent effect”; in assay [6], 90%; in [7], above 50%.

By inhibition is commonly meant the share of the control response that was lost under treatment.
